Laboratory results published in patent publication US11442059B2, “Method for treating a chronic itch condition by administering small molecule MrgprX4 antagonists” (The Johns Hopkins University, priority 2017, dated 2022).
Non-standard residues stand in square brackets, D forms with d. Residues, ends and D or L forms follow the SMILES beside them. *: point of attachment. Boc = CC(C)(C)OC(=O)*; OBn = c1ccc(CO*)cc1; For = O=C*

Assays:
mice [1] = test system: mice
MrgprA1 [2] = target: T1, MrgprA1 (Mus musculus, UniProt Q91WW5); experiment: Microscale thermophoresis binding assay, MRGPRA1; conditions: FIG. 24E
T1 construct: expressed in transfected cells; whole cells or crude membrane fraction
T1 sequence (Q91WW5 1-304): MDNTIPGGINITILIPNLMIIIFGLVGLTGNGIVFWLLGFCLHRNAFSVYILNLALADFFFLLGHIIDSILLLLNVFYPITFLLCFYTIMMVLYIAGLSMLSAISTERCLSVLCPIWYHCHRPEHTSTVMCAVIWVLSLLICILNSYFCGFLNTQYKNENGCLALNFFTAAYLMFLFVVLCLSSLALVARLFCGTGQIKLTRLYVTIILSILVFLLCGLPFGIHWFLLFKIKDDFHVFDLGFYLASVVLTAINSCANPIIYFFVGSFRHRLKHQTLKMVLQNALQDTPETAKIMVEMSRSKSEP
Description: (§1) Binding isotherms for MRGPRA1, MRGPRX4, and MRGRPC11 towards various ligands were determined by microscale thermophoresis with the NanoTemper monolith NT.115 instrument^27. Ligands were pre-incubated with 10 μM of the GFP-tagged receptor of interest for 5 minutes at room temperature in binding buffer (20 mM Tris and 150 mM NaCl at pH 8.8). Receptors were crudely purified as a membrane fraction from cells stably expressing the receptor^45. Haem metabolites were freshly dissolved in 0.1 M NaOH in dim light and then diluted into assay buffer. Lyophilized BAMS-22 was dissolved in binding buffer. The pH of each ligand was evaluated prior to incubation with a receptor. Samples were loaded into NT.115 Hydrophobic-Treated Capillaries from NanoTemper. Microscale thermophoretic experiments were executed using 20% LED power and 15% MST power. KDs were calculated using the law of mass action with data from three independent experiments. Binding between bilirubin and receptors was evaluated purely thermophoretically, whereas binding between BAMS-22 and MRGPRC11 was evaluated by T-Jump. Samples with dramatic deviations in initial fluorescence were excluded.

MrgprA1 [3] = target: T1, MrgprA1; experiment: Fura 2-AM calcium imaging, EC50 and IC50 determinations, MRGPRA1 HEK293 cells; format: cell-based; conditions: for activation of MRGPRA1-expressing cells (calcium): concentration-Ca2+ response, FIG. 24D
Description: (§2) Cells were imaged in calcium imaging buffer (CIB; 10 mM HEPES, 1.2 mM NaHCO3, 130 mM NaCl, 3 mM KCl, 2.5 mM CaCl2, 0.6 mM MgCl2, 20 mM glucose, and 20 mM sucrose at pH 7.4 and 290-300 mOsm). To monitor changes in intracellular [Ca^2+] ([Ca^2+]i), cells were loaded with either Fura 2-AM (HEK293 cells) or Fluo 4-AM (DRG neurons and mast cells) for 30 min in the dark at 37° C. in CIB just prior to imaging. With Fura 2-AM, emission at 510 nm was monitored from excitation at both 340 nm and 380 nm. With Fluo 4-AM, emission at 520 nm was monitored from excitation at 488 nm. Cells were identified as responding if the intracellular [Ca^2+] rose by either 50% compared to baseline or 50% compared to the [Ca^2+]i change assayed during addition of 50 mM KCl (neurons only). Damaged, detached, high-baseline, and motion-activated cells were excluded from analysis.
(§3) In initial screens, HEK293 cells stably expressing the murine G-protein alpha-subunit Gα15, a unique Gα protein that non-selectively couples a large variety of GPCRs to phospholipase C^30, were plated on poly-D-lysine-coated coverslips and transiently transfected with constructs encoding the MRGRPR of interest. 12-24 h later, cells were loaded with the Fura 2-AM. Unless otherwise specified, compounds were perfused into the imaging chamber for approximately thirty seconds after a baseline period was established. Response was then monitored at 5 s intervals for an additional 60 s.
(§4) HEK293 cells stably expressing either MRGPRA1, MRGPRX4, and MRGRPC11 were seeded in poly-D-lysine-coated 96-well plates at 10,000 cells/well. Cells were loaded with Fura 2-AM, washed twice, and maintained in CIB. Haem metabolites were freshly dissolved in DMSO in dim light and then diluted into a buffer comprised of 20 mM Tris and 150 mM NaCl at pH 8.8. Potential changes in pH were evaluated prior to each experiment. EC50 values were determined from dose-responses performed in triplicate, repeated 2-4 times. To determine potential antagonism by QWF against bilirubin, cells were treated with varying doses of QWF for 1 min in CIB prior to application of agonist.

MRGPRX4 [4] = target: T2, MRGPRX4 (Homo sapiens, UniProt Q96LA9); experiment: Fura 2-AM calcium imaging, EC50 determinations, MRGPRX4 HEK293 cells; format: cell-based; design: expressed in transfected cells; whole cells or crude membrane fraction; conditions: for activation of MRGPRX4-expressing cells (calcium): concentration-Ca2+ response, FIG. 24I
T2 sequence (Q96LA9 whole entry): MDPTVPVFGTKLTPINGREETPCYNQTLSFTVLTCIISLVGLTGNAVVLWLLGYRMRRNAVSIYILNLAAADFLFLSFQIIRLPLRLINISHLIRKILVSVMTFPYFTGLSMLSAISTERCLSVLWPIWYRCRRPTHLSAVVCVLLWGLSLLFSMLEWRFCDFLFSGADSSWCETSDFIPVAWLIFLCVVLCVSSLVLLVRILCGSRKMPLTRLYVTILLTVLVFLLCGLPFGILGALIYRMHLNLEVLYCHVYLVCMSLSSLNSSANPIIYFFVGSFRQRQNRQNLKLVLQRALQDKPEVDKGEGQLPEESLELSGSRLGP
Description: as §2, §3
as §4, with “To determine potential antagonism by QWF against bilirubin, cells were treated with varying doses of QWF for 1 min in CIB prior to application of agonist.” left out

MRGPRX4 [5] = target: T2, MRGPRX4; experiment: Microscale thermophoresis binding assay, MRGPRX4; design: expressed in transfected cells; whole cells or crude membrane fraction; conditions: FIG. 24J
Description: as §1

mice [6] = experiment: Acute itch behaviour after injection (scratching bouts); format: in vivo, mouse
MrgprA1 [7] = target: T1, MrgprA1; experiment: FLIPR calcium assay (Flexstation3), HEK cells stably expressing MrgprA1; format: cell-based; conditions: MrgprA1 HEK cells, FIG. 17B
Description: EC50s were calculated using HEK cells stably expressing either MrgprA1 or MrgprX4. Cells were loaded with FLIPR calcium imaging dye, and a Flexstation3 machine (Molecular Devices) was used for reading changes in fluorescence. Wells were run in triplicate, and all values from each plate were normalized to the highest responding well. […] The x-axis depicts a modified logarithmic scale. […] FIG. 18B is a graph depicting the EC50 for MrgprX4 for bilirubin is approximately 3 μM.

mouse Mrgpra1 = target: T3, mouse Mrgpra1 (Mus musculus, UniProt Q91WW5); experiment: Ca2+ imaging / EC50 determination in HEK293 cells expressing Mrgpra1; format: cell-based; conditions: Mrgprs individually expressed in HEK293 cells
T3 construct: expressed in transfected cells; host or cells: HEK293
T3 sequence (Q91WW5 1-304): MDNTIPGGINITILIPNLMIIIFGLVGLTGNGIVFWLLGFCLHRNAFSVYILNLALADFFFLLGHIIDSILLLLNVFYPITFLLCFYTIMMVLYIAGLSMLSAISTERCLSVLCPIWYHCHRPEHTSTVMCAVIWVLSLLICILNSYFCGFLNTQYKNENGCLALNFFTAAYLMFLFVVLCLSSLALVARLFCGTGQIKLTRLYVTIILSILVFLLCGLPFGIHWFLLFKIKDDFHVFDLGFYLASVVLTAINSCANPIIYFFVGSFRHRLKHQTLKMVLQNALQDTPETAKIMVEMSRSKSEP
Description: (§5) Lamotrigine (LTG), allopurinol, carbamazepine and oxcarbazepine (all from Sigma) were prepared fresh on the day of the experiment. These drugs were dissolved into dimethyl sulfoxide (DMSO) first, and then were diluted at least 10000× into calcium imaging buffer before use. The final concentrations of drugs for each experiment were indicated in the corresponding figure legend.
(§6) In initial experiments, HEK293 cells were plated on 100 μg/ml poly-D-lysine coated glass cover slips, and transiently transfected with vector containing Mrgprs gene, after 24-48 hours of culture, cells were loaded with Fura 2-acetomethoxy ester calcium indicator (0.5 μM, Molecular Probes) along with pluronic F-127 dispersing agent (0.1%, Molecular Probes) for 30 minutes in the dark at 37° C., then washed with calcium imaging buffer (CIB; NaCl 125 mM, KCl 3 mM, CaCl2 2.5 mM, MgCl2 0.6 mM, HEPES 10 mM, glucose 20 mM, NaHCO3 1.2 mM, sucrose 20 mM, brought to pH 7.4 with NaOH). Drugs were added to Fura 2-loaded cells and intracellular free calcium was measured using 340 nm and 380 nm excitation wavelengths with emission measured at 520 nm with a microscope based imaging system (Nikon Eclipse TE200). Changes in emission fluorescence ratios at 340/380 nm excitation were continuously monitored at 1 second intervals. Later, experiments were performed using Mrgpra1-GFP, Mrgprc11-GFP and MRGPRX4-GFP stable cell lines to confirm the findings obtained from the transiently expressing cells.
(§7) Mrgpra1 or both wild-type and mutant MRGPRX4 stably expressed HEK cells were plated overnight in 100 μl culture media on 96-well plates. […] After 1 hour of incubation at 37° C., cells were allowed to recover for 10 minutes in the dark at room temperature prior to performing intracellular calcium mobilization assay in a FLEXSTATION® multi-mode plate reader (Molecular Devices). […] Responses were determined by subtracting the minimum signal (at the basal level before adding the drug) from the maximum signal (obtained after stimulating with the drug). […]

129S1/SvImJ mice = experiment: SJS/TEN mouse model (daily oral gavage of causative drug); format: in vivo; conditions: mouse, in vivo
Description: Eight-to-ten week old male mice were orally gavaged with either causative drugs (LTG, allopurinol, oxcarbazepine) suspended in saline or saline once daily. The dosage was based on milligrams per kilogram of animal's body weight as indicated (for example, LTG 50 mg kg^−1 body weight). Skin, eyes, and mucosa, survival, body weight, physical and gross appearances (particularly on the eyes, mucosa and skins) were monitored every day.
The animals were deeply anesthetized with pentobarbital and transcardially perfused with 20 ml 0.1 M cold PBS (pH 7.4) followed with 25 ml of cold 4% paraformaldehyde (PFA). Paw skin, eyelid, spleen, lymph nodes were dissected out. postfixed in 4% PFA for more than two hours, and cryoprotected in a 20% followed by 30% sucrose solution for 24 hours each at 4° C. Tissue samples were embedded in the optimal cutting temperature (OCT) and frozen before being serially cut into 20 μm sections and placed onto slides. Hematoxylin and eosin (H&E) staining was performed using standard procedures according to the manufacturer's instruction VITROVIEW™ H&E Stain Kit). To quantify amount of apoptotic cells, terminal deoxynucleotidyl transferase dUTP nick end labeling (TUNEL) assay, a method for detecting DNA fragmentation that results from apoptotic cells by labeling the terminal end of nucleic acids, was performed by following the protocol of Apo-BrdU DNA Fragmentation Assay Kit (Biovision). To estimate the total cell number in tissue, all nuclei were stained with propidium iodide. Digital photographs were captured under confocal fluorescent microscopy at x200 magnification (Zeiss LSM 700). The number of TUNEL-positive nuclei were counted and reported as a percentage over the number of total nuclei observed in the skin's epidermis layer.

MRGPRX4 [8] = target: T2, MRGPRX4; experiment: Ca2+ imaging / EC50 determination in HEK293 cells expressing MRGPRX4; format: cell-based; design: expressed in transfected cells; conditions: Mrgprs individually expressed in HEK293 cells
Description: as §5, §6, §7

[9] = target: human MRGPRX3 (Mas-related G-protein coupled receptor member X3) (human) (UniProt Q96LB0); experiment: cell-based or functional assay
Sequence of human MRGPRX3 (Mas-related G-protein coupled receptor member X3) (human) (Q96LB0 whole entry): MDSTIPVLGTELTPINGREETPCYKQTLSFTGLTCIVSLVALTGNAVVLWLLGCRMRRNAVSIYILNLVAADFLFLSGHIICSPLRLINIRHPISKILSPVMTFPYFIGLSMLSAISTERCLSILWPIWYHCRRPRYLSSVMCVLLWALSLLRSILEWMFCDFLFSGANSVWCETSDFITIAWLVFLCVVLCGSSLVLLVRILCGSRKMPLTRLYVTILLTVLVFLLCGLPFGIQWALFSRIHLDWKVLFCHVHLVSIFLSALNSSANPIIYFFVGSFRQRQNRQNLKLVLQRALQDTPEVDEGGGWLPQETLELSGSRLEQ

[10] = target: T4, murine MRGPRA1 stably expressed in HEK293 cells (GFP-tagged, pEGFP-N1) (mouse, UniProt Q91WW5 1-304); experiment: cell-based or functional assay
T4 sequence (looked up): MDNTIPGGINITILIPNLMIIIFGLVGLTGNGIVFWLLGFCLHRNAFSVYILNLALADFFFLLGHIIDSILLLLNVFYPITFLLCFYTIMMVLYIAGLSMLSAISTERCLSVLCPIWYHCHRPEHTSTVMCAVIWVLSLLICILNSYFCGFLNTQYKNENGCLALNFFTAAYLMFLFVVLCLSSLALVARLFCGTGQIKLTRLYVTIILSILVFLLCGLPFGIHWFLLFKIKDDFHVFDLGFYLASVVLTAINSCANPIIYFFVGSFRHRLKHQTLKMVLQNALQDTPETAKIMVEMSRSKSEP

[11] = 10 μM pre-incubated 30 minutes, 50 μM bilirubin

S=C=Nc1cccc2ccccc12 [ANIT, α-naphthyl isothiocyanate]
reduction in scratching bouts, Cluster KO versus WT littermates (mice [1]; 25 mg/kg ANIT per os daily): ~46%

C=CC1=C(C)/C(=C/c2[nH]c(Cc3[nH]c(/C=C4\NC(=O)C(C)=C4C=C)c(C)c3CCC(=O)NCCS(=O)(=O)O)c(CCC(=O)NCCS(=O)(=O)O)c2C)NC1=O [Conjugated bilirubin, bilirubin ditaurate]
binding to MRGPRA1 (MrgprA1 [2]): lower affinities compared to bilirubin | activation of MRGPRA1-expressing cells (calcium) (MrgprA1 [3]): activated | activation of MRGPRX4-expressing cells (calcium) (MRGPRX4 [4]): activated | binding to MRGPRX4 (MRGPRX4 [5]): lower affinities compared to bilirubin

CC(C)(C)OC(=O)N[C@@H](CCC(N)=O)C(=O)N[C@H](Cc1cn(C=O)c2ccccc12)C(=O)N[C@@H](Cc1ccccc1)C(=O)OCc1ccccc1 [QWF, BOC-GLN-D-(FORMYL)TRP-PHE-BENZYLESTER] (Boc-Gln-[dW](For)-Phe-OBn)
scratching versus vehicle-treated animals (mice [1]; ANIT-dosed WT animals, 1 mg/kg i.p. thirty minutes prior to behavioral analysis): scratched significantly less | plasma levels of total bilirubin, AST, ALT, or ALP (mice [1]; mouse, in vivo, ip, 1 mg/kg): did not change | effect on pruritus associated with bilirubin (mice [6]; 0.25 mg/kg co-injected with bilirubin): significantly alleviated pruritus | effect on chloroquine-MRGPRA3 associated itch (mice [6]; co-injected with chloroquine): did not attenuate

COc1ccc2c(c1)CC[C@@H]1[C@@H]2CC[C@]2(C)[C@@H](NCCCCCCN3C(=O)C=CC3=O)CC[C@@H]12 [U73122]
effect on bilirubin calcium influx (MrgprA1 [7]): blocked the calcium influx | effect on bilirubin-induced calcium responses, MRGPRA1 (MrgprA1 [3]; [11]): abolished | effect on bilirubin-induced calcium responses, MRGPRX4 (MRGPRX4 [4]; [11]): inhibited

C=CC1=C(C)c2cc3[n-]c(cc4nc(cc5[n-]c(cc1n2)c(C)c5C=C)C(C)=C4CCC(=O)O)c(CCC(=O)O)c3C.[Cl-].[Fe+3] [haemin]
binding to MRGPRA1 (MrgprA1 [2]): did not bind | activation of MRGPRA1-expressing cells (calcium) (MrgprA1 [3]): failed to activate | activation of MRGPRX4-expressing cells (calcium) (MRGPRX4 [4]): no effect | binding to MRGPRX4 (MRGPRX4 [5]): did not bind | scratching / itch elicited by injection (mice [6]; WT mice): did not induce scratching

NC(=O)N1c2ccccc2CC(=O)c2ccccc21 [oxcarbazepine]
activation of mouse Mrgpra1 (Ca2+ imaging) (mouse Mrgpra1): specifically activated | eye manifestation (129S1/SvImJ mice): can also induce eye manifestation | activation of human MRGPRX4 (Ca2+ imaging) (MRGPRX4 [8]): specifically activated

synthetic human Beta-defensin 3 (hBD3) (from UniProt P81534 23-67) (peptide)
percentage of primary human keratinocytes that responded to hBD3 (Ca^2+), after siRNA knock-down of MRGPRX3 [9]: < 20% | percentage of primary human keratinocytes that responded to hBD3 (Ca^2+), before MRGPRX3 knock-down [9]: > 80%

B1: BOC-GLN-D-(FORMYL)TRP-PHE-BENZYLESTER (QWF) (peptide)
peptide: Boc-Gln-[dW](For)-Phe-OBn
IC50 for inhibition of bilirubin-induced Ca^2+ signal in MRGPRA1-expressing HEK cells (200 µM bilirubin) [10]: 2900 nM
